Laboratory results from patent publication US20210238187A1, “AZIRIDINE CONTAINING EPOTHILONE ANALOGS, METHODS OF SYNTHESIS, METHODS OF TREATMENT, AND DRUG CONJUGATES” (WILLIAM MARSH RICE UNIVERSITY, priority 2017, published 2021).

Columns and labels:
Tubulin = Tubulin assembly induction; type: biochemical; settings: […]
MCF-7 = assay: Cytotoxicity (GI50) assay, MCF-7; type: cell-based, human; settings: Homo sapiens, MCF7, read-out: Cancer cell lines GI50, MCF-7
OVCAR-8 = assay: Cytotoxicity (GI50) assay, OVCAR-8; type: cell-based, human; settings: Homo sapiens, OVCAR-8, read-out: Cancer cell lines GI50, OVCAR-8
NCI/ADR-RES = assay: Cytotoxicity (GI50) assay, NCI/ADR-RES; type: cell-based, human; settings: Homo sapiens, NCI/ADR-RES, read-out: Cancer cell lines GI50, NCI/ADR-RES
MDA-MB-435 = assay: Cytotoxicity (GI50) assay, MDA-MB-435; type: cell-based, human; settings: Homo sapiens, MDA-MB-435, read-out: Cancer cell lines GI50, MDA-MB-435
SNB-75 = assay: Cytotoxicity (GI50) assay, SNB-75; type: cell-based, human; settings: Homo sapiens, SNB-75, read-out: Cancer cell lines GI50, SNB-75
MES SA = assay: Cytotoxicity assay (CellTiter-Glo), MES SA; type: cell-based, human; settings: Homo sapiens, MES-SA, 72 h, read-out: Cancer cell lines IC50, MES SA
MES SA DX = assay: Cytotoxicity assay (CellTiter-Glo), MES SA DX; type: cell-based, human; settings: Homo sapiens, MES-SA, 72 h, read-out: Cancer cell lines IC50, MES SA DX
HEK 293T = assay: Cytotoxicity assay (CellTiter-Glo), HEK 293T; type: cell-based; settings: Homo sapiens, 72 h, read-out: Cancer cell lines IC50, HEK 293T

C/C(=C\c1cc(-c2ccc(F)cc2)on1)[C@@H]1C[C@@H]2N(CCO)[C@]2(C)CCC[C@H](C)[C@H](O)[C@@H](C)C(=O)C(C)(C)[C@@H](O)CC(=O)O1 (stereo partly drawn) [compound 31, (1S,3S,7S,10R,11S,12S,16R)-3-{(1E)-1-[5-(4-Fluorophenyl)-1,2-oxazol-3-yl]prop-1-en-2-yl}-7,11-dihydroxy-17-(2-hydroxyethyl)-8,8,10,12,16-pentamethyl-4-oxa-17-azabicyclo[14.1.0]heptadecane-5,9-dione]
EC50 (Tubulin): 19000 nM | GI50 (MCF-7): 13 nM | GI50 (OVCAR-8): 70 nM | GI50 (NCI/ADR-RES): 50 nM | GI50 (MDA-MB-435): 11 nM | GI50 (SNB-75): 65 nM | IC50 (MES SA): 1.41 nM | IC50 (MES SA DX): 17.1 nM | IC50 (HEK 293T): 0.32 nM

C/C(=C\c1cc(C)no1)[C@@H]1C[C@@H]2N(CCO)[C@]2(C)CCC[C@H](C)[C@H](O)[C@@H](C)C(=O)C(C)(C)[C@@H](O)CC(=O)O1 (stereo partly drawn) [compound 29, (1S,3S,7S,10R,11S,12S,16R)-7,11-Dihydroxy-17-(2-hydroxyethyl)-8,8,10,12,16-pentamethyl-3-[(1E)-1-(3-methyl-1,2-oxazol-5-yl)prop-1-en-2-yl]-4-oxa-17-azabicyclo[14.1.0]heptadecane-5,9-dione]
EC50 (Tubulin): 45000 nM | GI50 (MCF-7): 9.5 nM | GI50 (OVCAR-8): 27 nM | GI50 (NCI/ADR-RES): 390 nM | GI50 (MDA-MB-435): 17 nM | GI50 (SNB-75): 34 nM | IC50 (MES SA): 6.54 nM | IC50 (MES SA DX): > 70 nM | IC50 (HEK 293T): 1.67 nM

C/C(=C\c1ccn(Cn2cccn2)n1)[C@@H]1C[C@@H]2N[C@]2(C)CCC[C@H](C)[C@H](O)[C@@H](C)C(=O)C(C)(C)[C@@H](O)CC(=O)O1 [compound 33, (1S,3S,7S,10R,11S,12S,16R)-7,11-Dihydroxy-8,8,10,12,16-pentamethyl-3-{(1E)-1-[1-(1H-pyrazol-1-ylmethyl)-1H-pyrazol-3-yl]prop-1-en-2-yl}-4-oxa-17-azabicyclo[14.1.0]heptadecane-5,9-dione]
EC50 (Tubulin): > 60000 nM | GI50 (MCF-7): 140 nM | GI50 (OVCAR-8): 1100 nM | GI50 (NCI/ADR-RES): > 5000 nM | GI50 (MDA-MB-435): 160 nM | GI50 (SNB-75): 450 nM | IC50 (MES SA): 107 nM | IC50 (MES SA DX): > 2500 nM | IC50 (HEK 293T): 175 nM

C/C(=C\c1snnc1C)[C@@H]1C[C@@H]2N(CCO)[C@]2(C)CCC[C@H](C)[C@H](O)[C@@H](C)C(=O)C(C)(C)[C@@H](O)CC(=O)O1 (stereo partly drawn) [compound 30, (1S,3S,7S,10R,11S,12S,16R)-7,11-Dihydroxy-17-(2-hydroxyethyl)-8,8,10,12,16-pentamethyl-3-[(1E)-1-(4-methyl-1,2,3-thiadiazol-5-yl)prop-1-en-2-yl]-4-oxa-17-azabicyclo[14.1.0]heptadecane-5,9-dione]
EC50 (Tubulin): > 60000 nM | GI50 (MCF-7): 58 nM | GI50 (OVCAR-8): 210 nM | GI50 (NCI/ADR-RES): 2800 nM | GI50 (MDA-MB-435): 48 nM | GI50 (SNB-75): 100 nM | IC50 (MES SA): 37.8 nM | IC50 (MES SA DX): > 2500 nM | IC50 (HEK 293T): 64 nM

C/C(=C\c1coc(C)n1)[C@@H]1C[C@@H]2N(CCO)[C@]2(C)CCC[C@H](C)[C@H](O)[C@@H](C)C(=O)C(C)(C)[C@@H](O)CC(=O)O1 (stereo partly drawn) [compound 16, (1S,3S,7S,10R,11S,12S,16R)-7,11-Dihydroxy-17-(2-hydroxyethyl)-8,8,10,12,16-pentamethyl-3-[(1E)-1-(2-methyl-1,3-oxazol-4-yl)prop-1-en-2-yl]-4-oxa-17-azabicyclo[14.1.0]heptadecane-5,9-dione]
EC50 (Tubulin): 38000 nM | GI50 (MCF-7): 17 nM | GI50 (OVCAR-8): 39 nM | GI50 (NCI/ADR-RES): 190 nM | GI50 (MDA-MB-435): 11 nM | GI50 (SNB-75): 19 nM | IC50 (MES SA): 2.71 nM | IC50 (MES SA DX): 79.4 nM | IC50 (HEK 293T): 0.95 nM

C/C(=C\c1csc(CCO)n1)[C@@H]1C[C@@H]2N(CCO)[C@]2(C)CCC[C@H](C)[C@H](O)[C@@H](C)C(=O)C(C)(C)[C@@H](O)CC(=O)O1 (stereo partly drawn) [compound 19, (1S,3S,7S,10R,11S,12S,16R)-7,11-Dihydroxy-17-(2-hydroxyethyl)-3-{(1E)-1-[2-(2-hydroxyethyl)-1,3-thiazol-4-yl]prop-1-en-2-yl}-8,8,10,12,16-pentamethyl-4-oxa-17-azabicyclo-[14.1.0]heptadecane-5,9-dione]
EC50 (Tubulin): > 60000 nM | GI50 (MCF-7): 40 nM | GI50 (OVCAR-8): 38 nM | GI50 (NCI/ADR-RES): 4800 nM | GI50 (MDA-MB-435): 12 nM | GI50 (SNB-75): 36 nM | IC50 (MES SA): 4.98 nM | IC50 (MES SA DX): > 1000 nM | IC50 (HEK 293T): 3.39 nM

C/C(=C\c1csc(-c2nc(C)cs2)n1)[C@@H]1C[C@@H]2N(CCO)[C@]2(C)CCC[C@H](C)[C@H](O)[C@@H](C)C(=O)C(C)(C)[C@@H](O)CC(=O)O1 (stereo partly drawn) [compound 22, (1S,3S,7S,10R,11S,12S,16R)-7,11-Dihydroxy-17-(2-hydroxyethyl)-8,8,10,12,16-pentamethyl-3-[(1E)-1-(4′-methyl-2,2′-bi-1,3-thiazol-4-yl)prop-1-en-2-yl]-4-oxa-17-azabicyclo[14.1.0]-heptadecane-5,9-dione]
EC50 (Tubulin): 17000 nM | GI50 (MCF-7): 7.5 nM | GI50 (OVCAR-8): 18 nM | GI50 (NCI/ADR-RES): 240 nM | GI50 (MDA-MB-435): 4 nM | GI50 (SNB-75): 18 nM | IC50 (MES SA): 1.86 nM | IC50 (MES SA DX): 392 nM | IC50 (HEK 293T): 1.55 nM

C/C(=C\c1csc(-c2nc(C)cs2)n1)[C@@H]1C[C@@H]2N[C@]2(C)CCC[C@H](C)[C@H](O)[C@@H](C)C(=O)C(C)(C)[C@@H](O)CC(=O)O1 [compound 32, (1S,3S,7S,10R,11S,12S,16R)-7,11-Dihydroxy-8,8,10,12,16-pentamethyl-3-[(1E)-1-(4′-methyl-2,2′-bi-1,3-thiazol-4-yl)prop-1-en-2-yl]-4-oxa-17-azabicyclo[14.1.0]heptadecane-5,9-dione]
EC50 (Tubulin): 43000 nM | GI50 (MCF-7): 25 nM | GI50 (OVCAR-8): 58 nM | GI50 (NCI/ADR-RES): 170 nM | GI50 (MDA-MB-435): 11 nM | GI50 (SNB-75): 68 nM | IC50 (MES SA): 25.8 nM | IC50 (MES SA DX): > 400 nM | IC50 (HEK 293T): 63.2 nM

C/C(=C\c1csc(C)n1)[C@@H]1C[C@@H]2O[C@]2(C)CCC[C@H](C)[C@H](O)[C@@H](C)C(=O)C(C)(C)[C@@H](O)CC(=O)O1 [compound 2, epothilone B, reference compound]
EC50 (Tubulin): […] | GI50 (MCF-7): 9.2 nM | GI50 (OVCAR-8): 15 nM | GI50 (NCI/ADR-RES): 19 nM | GI50 (MDA-MB-435): 7 nM | GI50 (SNB-75): 8 nM | IC50 (MES SA): 0.28 nM | IC50 (MES SA DX): 1.16 nM | IC50 (HEK 293T): 0.26 nM

CSc1nc(/C=C(\C)[C@@H]2C[C@@H]3N(CCS)[C@]3(C)CCC[C@H](C)[C@H](O)[C@@H](C)C(=O)C(C)(C)[C@@H](O)CC(=O)O2)cs1 (stereo partly drawn) [compound 35, (1S,3S,7S,10R,11S,12S,16R)-7,11-Dihydroxy-8,8,10,12,16-pentamethyl-3-{(1E)-1-[2-(methyl-sulfanyl)-1,3-thiazol-4-yl]prop-1-en-2-yl}-17-(2-sulfanylethyl)-4-oxa-17-azabicyclo[14.1.0]-heptadecane-5,9-dione]
EC50 (Tubulin): > 60000 nM | GI50 (MCF-7): 39 nM | GI50 (OVCAR-8): 19 nM | GI50 (NCI/ADR-RES): 30 nM | GI50 (MDA-MB-435): 5.5 nM | GI50 (SNB-75): 32 nM | IC50 (MES SA): 1.48 nM | IC50 (MES SA DX): 17 nM | IC50 (HEK 293T): 0.34 nM

C/C(=C\c1cnsn1)[C@@H]1C[C@@H]2N(CCO)[C@]2(C)CCC[C@H](C)[C@H](O)[C@@H](C)C(=O)C(C)(C)[C@@H](O)CC(=O)O1 (stereo partly drawn) [compound 28, (1S,3S,7S,10R,11S,12S,16R)-7,11-Dihydroxy-17-(2-hydroxyethyl)-8,8,10,12,16-pentamethyl-3-[(1E)-1-(1,2,5-thiadiazol-3-yl)prop-1-en-2-yl]-4-oxa-17-azabicyclo[14.1.0]heptadecane-5,9-dione]
EC50 (Tubulin): 39000 nM | GI50 (MCF-7): 4.5 nM | GI50 (OVCAR-8): 9 nM | GI50 (NCI/ADR-RES): 680 nM | GI50 (MDA-MB-435): 3 nM | GI50 (SNB-75): 8 nM | IC50 (MES SA): 4.58 nM | IC50 (MES SA DX): 264 nM | IC50 (HEK 293T): 1.93 nM
